One block for each molecule: values may come before it.
Legend:
hTRPV6-Y467A = hTRPV6-Y467A (Homo sapiens, UniProt Q9H1D0, Y507A); assay: cell-based
Experimental: (§1) Arrows indicate the times when 2-APB and Ca^2+ were added. […] The changes in the fluorescence intensity ratio at 340 and 380 nm (F340/F380) evoked by addition of 2 mM Ca^2+ after preincubation with various concentrations of 2-APB were normalized to the maximal change in F340/F380 after addition of 2 mM Ca^2+ in the absence of 2-APB. […] Error bars represent SEMs
(§2) For crystallization experiments, we used the previously developed construct TRPV6*[39], which includes wild-type rat TRPV6 (rTRPV6) residues 1–668 and three point mutations (I62Y, L92N, and M96Q), and the TRPV6*-Y466A construct, which contains an additional point mutation, Y466A. For calcium uptake measurement experiments, we used TRPV6*, rTRPV6, and rTRPV6 with individual alanine substitutions (rTRPV6-E402A, rTRPV6-H425A, rTRPV6-Y466A, rTRPV6-R469A, and rTRPV6-M602A), wild-type human TRPV6 (hTRPV6), hTRPV6 with a single tyrosine-to-alanine substitution (hTRPV6-Y467A), wild-type rat TRPV1 (rTRPV1), rat TRPV2 (rTRPV2) and mouse TRPV3 (mTRPV3), and their mutant versions with single tyrosine-to-alanine substitutions (rTRPV1-Y554A, rTRPV2-Y514A, and mTRPV3-Y564A, respectively). For cryo-EM experiments, we used hTRPV6 and hTRPV6-Y467A constructs.
(§3) The intracellular Ca^2+ measurements from HEK 293 cells expressing different TRP channel constructs (see above) were performed similarly to those described previously[39],[49]. Briefly, to measure 2-APB-dependent inhibition of TRPV6 activity, cells expressing TRPV6 constructs were suspended in Ca^2+-free buffer and transferred to a quartz cuvette. After an initial 100-s equilibration period, 2-APB was added to the cuvette and incubated for another 100 s, before 2 mM CaCl2 was added. For the TRPV6-E402A mutant, 5 mM instead of 2 mM CaCl2 was added. For intracellular Ca^2+ measurements from HEK 293 cells expressing TRPV1, TRPV2, or TRPV3, the experiments were carried out with prewarmed modified HBS (118 mM NaCl, 4.8 mM KCl, 1 mM MgCl2, 2.5 mM CaCl2, 5 mM D-glucose, 10 mM HEPES pH 7.4). Briefly, HEK 293 cells expressing TRPV1/2/3 channels were centrifuged at 600×g, resuspended in modified HBS containing 5 μg/mL of Fura 2-AM (Life Technologies), and incubated at 37 °C for 45 min. Next, the cells were centrifuged for 5 min at 600×g, resuspended in prewarmed, modified HBS, and incubated again at 37 °C for 20–30 min in the dark. The cells were subsequently pelleted and washed twice, and then resuspended in modified HBS for fluorescence measurements. Intracellular Ca^2+ was measured by taking the ratio of fluorescence (510 nm) emitted from Fura 2-AM after excitation at either a wavelength of 340 nm (excites Ca^2+ bound Fura 2-AM) or 380 nm (excites Ca^2+ free Fura 2-AM). The excitation wavelength was switched at 1-s intervals. ΔF340/F380 was measured as the difference between baseline F340/F380 ratio recorded before the addition of Ca^2+ (for TRPV6 experiments) or 2-APB (for TRPV1-3) and the maximum F340/F380 after addition of either Ca^2+ or 2-APB. Data were normalized to ΔF340/F380 in the absence of 2-APB (for TRPV6 constructs) or the ΔF340/F380 value at saturating concentrations of 2-APB (for TRPV1/2/3).

wild-type hTRPV6 = wild-type hTRPV6 (Homo sapiens, UniProt Q9H1D0); assay: cell-based
Experimental: as §1, §2, §3

wild-type rTRPV6 = wild-type rTRPV6 (Rattus norvegicus, UniProt Q9R186); assay: cell-based
Experimental: as §1, §2, §3

[1] = biological target: TRPV6* (rat TRPV6 residues 1-668, I62Y, L92N, M96Q) (Rattus norvegicus, UniProt Q9R186, I102Y/L132N/M136Q); assay: cell-based
Experimental: as §1, §2, §3

TRPV4 = conditions: cited from earlier work
rTRPV6-Y466A = rTRPV6-Y466A (Rattus norvegicus, UniProt Q9R186, Y506A); assay: cell-based
Excerpt: (§4) To further characterize the 2-APB binding site and to examine the contribution of individual residues to 2-APB inhibition, we introduced alanine substitutions at residues in the 2-APB binding pocket (E402, H425, Y466, R469, and M602) and tested 2-APB inhibition.
as §2
as §3, with “TRPV1/2/3). All Fura2-AM-based fluorescence measurements were conducted using a QuantaMaster^TM 40 (Photon Technology International) spectrofluorometer at room temperature in a quartz cuvette under constant stirring.” for “TRPV1/2/3).”

rTRPV6-E402A = rTRPV6-E402A (Rattus norvegicus, UniProt Q9R186, E442A); assay: cell-based
Excerpt: as §4, §2
as §3, with “TRPV1/2/3). All Fura2-AM-based fluorescence measurements were conducted using a QuantaMaster^TM 40 (Photon Technology International) spectrofluorometer at room temperature in a quartz cuvette under constant stirring.” for “TRPV1/2/3).”

rTRPV6-R469A = rTRPV6-R469A (Rattus norvegicus, UniProt Q9R186, R509A); assay: cell-based
Excerpt: as §4, §2
as §3, with “TRPV1/2/3). All Fura2-AM-based fluorescence measurements were conducted using a QuantaMaster^TM 40 (Photon Technology International) spectrofluorometer at room temperature in a quartz cuvette under constant stirring.” for “TRPV1/2/3).”

rTRPV6-H425A = rTRPV6-H425A (Rattus norvegicus, UniProt Q9R186, H465A); assay: cell-based
Excerpt: as §4, §2
as §3, with “TRPV1/2/3). All Fura2-AM-based fluorescence measurements were conducted using a QuantaMaster^TM 40 (Photon Technology International) spectrofluorometer at room temperature in a quartz cuvette under constant stirring.” for “TRPV1/2/3).”

rTRPV6-M602A = rTRPV6-M602A (Rattus norvegicus, UniProt Q9R186, M642A); assay: cell-based
Excerpt: as §4, §2
as §3, with “TRPV1/2/3). All Fura2-AM-based fluorescence measurements were conducted using a QuantaMaster^TM 40 (Photon Technology International) spectrofluorometer at room temperature in a quartz cuvette under constant stirring.” for “TRPV1/2/3).”

rat TRPV2 (rTRPV2-Y514A) = conditions: leftward shift of 2-APB concentration dependence; HEK 293 cells, Fura-2
Excerpt: (§5) Fig. 5 Probing of the 2-APB binding site in different TRPV channels. a–c Dose–response curves for 2-APB activation of wild-type (black) and mutant (red) rat TRPV1 (a), rat TRPV2 (b), and mouse TRPV3 (c) channels with alanine substitution of the conserved tyrosine in the presumed 2-APB binding pocket. Each data point represents an average of n = 3–7 measurements with error bars representing SEMs. d, e Close-up view of superposition of the 2-APB binding pocket in the TRPV6*2-APB crystal structure (cyan) and the corresponding regions of rat TRPV1 (d) PDB ID: 5IRX, orange and rabbit TRPV2 (e) PDB ID: 5AN8, green. Phosphatidylcholine (PC), cholesterol and 2-APB molecules as well as the side chain of the conserved tyrosine are shown as sticks
(§6) For crystallization experiments, we used the previously developed construct TRPV6*[39], which includes wild-type rat TRPV6 (rTRPV6) residues 1–668 and three point mutations (I62Y, L92N, and M96Q), and the TRPV6*-Y466A construct, which contains an additional point mutation, Y466A. […]
(§7) The intracellular Ca^2+ measurements from HEK 293 cells expressing different TRP channel constructs (see above) were performed similarly to those described previously[39],[49]. […] The cells were subsequently pelleted and washed twice, and then resuspended in modified HBS for fluorescence measurements. Intracellular Ca^2+ was measured by taking the ratio of fluorescence (510 nm) emitted from Fura 2-AM after excitation at either a wavelength of 340 nm (excites Ca^2+ bound Fura 2-AM) or 380 nm (excites Ca^2+ free Fura 2-AM). The excitation wavelength was switched at 1-s intervals. ΔF340/F380 was measured as the difference between baseline F340/F380 ratio recorded before the addition of Ca^2+ (for TRPV6 experiments) or 2-APB (for TRPV1-3) and the maximum F340/F380 after addition of either Ca^2+ or 2-APB. […] All Fura2-AM-based fluorescence measurements were conducted using a QuantaMaster^TM 40 (Photon Technology International) spectrofluorometer at room temperature in a quartz cuvette under constant stirring.

[2] = tested on: mouse TRPV3 (mTRPV3-Y564A); conditions: leftward shift of 2-APB concentration dependence; HEK 293 cells, Fura-2
Excerpt: as §5, §6, §7

rat TRPV1 (rTRPV1-Y554A) = conditions: leftward shift of 2-APB concentration dependence; HEK 293 cells, Fura-2
Excerpt: as §5, §6, §7

TRPV5 = conditions: cited from earlier work
[3] = biological target: TRPV6* (rat TRPV6 residues 1-668 with I62Y, L92N and M96Q) (rat) (UniProt Q9R186); assay: crystal structure; TRPV6* constructs purified in DDM, without or with 1 mM 2-APB or 2-APB-Br; hanging drop, 20 °C, 20-24% PEG 350 MME, 50 mM NaCl, 50 mM Tris-HCl pH 8.0-8.5
[4] = biological target: the molecule itself; assay: cryo-EM structure; hTRPV6-Y467A in amphipols, 0.35 mg/ml, without or with 1 mM 2-APB; C4 symmetry imposed
[5] = HEK 293 cells, Fura-2, logistic fit
[6] = HEK 293 cells, Fura-2, logistic fit, mean ± SEM

Chain of wild-type hTRPV6 (Q9H1D0 41-765 limits assumed): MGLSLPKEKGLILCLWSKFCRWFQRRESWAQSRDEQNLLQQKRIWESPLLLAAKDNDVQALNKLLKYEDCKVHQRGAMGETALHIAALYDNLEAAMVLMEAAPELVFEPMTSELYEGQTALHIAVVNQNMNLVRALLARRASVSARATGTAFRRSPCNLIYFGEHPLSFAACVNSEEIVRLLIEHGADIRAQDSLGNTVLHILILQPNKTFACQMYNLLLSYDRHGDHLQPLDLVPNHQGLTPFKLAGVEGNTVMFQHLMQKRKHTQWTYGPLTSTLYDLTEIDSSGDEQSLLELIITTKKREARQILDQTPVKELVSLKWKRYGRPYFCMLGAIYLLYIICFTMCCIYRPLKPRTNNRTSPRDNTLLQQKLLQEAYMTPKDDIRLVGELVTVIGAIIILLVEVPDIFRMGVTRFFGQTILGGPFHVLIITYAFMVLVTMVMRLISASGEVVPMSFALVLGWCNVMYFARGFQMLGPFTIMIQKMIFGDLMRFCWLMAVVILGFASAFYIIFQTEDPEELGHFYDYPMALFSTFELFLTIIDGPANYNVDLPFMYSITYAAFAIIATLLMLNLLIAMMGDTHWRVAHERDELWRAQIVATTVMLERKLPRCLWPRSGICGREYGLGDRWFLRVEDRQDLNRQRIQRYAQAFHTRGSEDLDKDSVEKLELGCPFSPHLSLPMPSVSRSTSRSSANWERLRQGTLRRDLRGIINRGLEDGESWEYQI
Chain of wild-type rTRPV6 (Q9R186 41-767 limits assumed): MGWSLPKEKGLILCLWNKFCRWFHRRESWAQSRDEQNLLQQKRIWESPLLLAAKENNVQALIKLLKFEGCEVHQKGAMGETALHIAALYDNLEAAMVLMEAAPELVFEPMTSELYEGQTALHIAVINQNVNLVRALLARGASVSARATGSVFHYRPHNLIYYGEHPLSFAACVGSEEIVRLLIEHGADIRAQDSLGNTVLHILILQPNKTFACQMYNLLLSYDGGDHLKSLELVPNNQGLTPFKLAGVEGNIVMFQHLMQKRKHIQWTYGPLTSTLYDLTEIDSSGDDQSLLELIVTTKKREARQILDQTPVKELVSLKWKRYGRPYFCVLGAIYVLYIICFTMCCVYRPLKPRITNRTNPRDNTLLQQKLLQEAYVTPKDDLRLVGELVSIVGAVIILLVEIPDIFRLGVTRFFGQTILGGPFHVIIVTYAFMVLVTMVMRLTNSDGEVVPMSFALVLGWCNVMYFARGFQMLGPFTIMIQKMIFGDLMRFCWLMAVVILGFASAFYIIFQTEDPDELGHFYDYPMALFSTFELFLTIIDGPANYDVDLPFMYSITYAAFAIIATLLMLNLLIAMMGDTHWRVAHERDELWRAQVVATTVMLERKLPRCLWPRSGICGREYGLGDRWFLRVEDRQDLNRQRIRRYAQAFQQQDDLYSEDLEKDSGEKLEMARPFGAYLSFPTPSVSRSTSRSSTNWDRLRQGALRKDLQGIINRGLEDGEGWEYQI
Chain of TRPV6* (rat TRPV6 residues 1-668, I62Y, L92N, M96Q) (Q9R186 1-668 I102Y/L132N/M136Q): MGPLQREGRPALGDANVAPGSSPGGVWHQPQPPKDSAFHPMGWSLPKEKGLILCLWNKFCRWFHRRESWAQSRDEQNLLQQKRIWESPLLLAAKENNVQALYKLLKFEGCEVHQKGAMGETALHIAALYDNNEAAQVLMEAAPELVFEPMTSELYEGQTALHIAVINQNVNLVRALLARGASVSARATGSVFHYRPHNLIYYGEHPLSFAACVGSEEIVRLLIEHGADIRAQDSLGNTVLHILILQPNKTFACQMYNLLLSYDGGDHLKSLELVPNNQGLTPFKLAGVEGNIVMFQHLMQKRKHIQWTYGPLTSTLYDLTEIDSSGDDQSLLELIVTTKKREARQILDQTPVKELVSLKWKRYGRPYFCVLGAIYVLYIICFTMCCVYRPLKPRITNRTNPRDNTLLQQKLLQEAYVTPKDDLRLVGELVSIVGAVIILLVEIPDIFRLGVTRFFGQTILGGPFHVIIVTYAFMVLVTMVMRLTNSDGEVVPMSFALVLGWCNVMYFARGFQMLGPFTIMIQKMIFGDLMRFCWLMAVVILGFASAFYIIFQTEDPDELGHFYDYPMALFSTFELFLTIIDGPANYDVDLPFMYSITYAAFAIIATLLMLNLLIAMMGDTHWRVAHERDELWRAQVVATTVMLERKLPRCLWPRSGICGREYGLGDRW
Chain of rTRPV6-R469A (Q9R186 41-767 R509A limits assumed): as the sequence (Q9R186 41-767 limits assumed) above, with R469A counted along it
Chain of rTRPV6-E402A (Q9R186 41-767 E442A limits assumed): as the sequence (Q9R186 41-767 limits assumed) above, with E402A counted along it
Chain of rTRPV6-Y466A (Q9R186 41-767 Y506A limits assumed): as the sequence (Q9R186 41-767 limits assumed) above, with Y466A counted along it
Chain of rTRPV6-M602A (Q9R186 41-767 M642A limits assumed): as the sequence (Q9R186 41-767 limits assumed) above, with M602A counted along it
Chain of rTRPV6-H425A (Q9R186 41-767 H465A limits assumed): as the sequence (Q9R186 41-767 limits assumed) above, with H425A counted along it

- IC50 (hTRPV6-Y467A): 60 ± 13 µM
- maximal inhibition of Ca2+ uptake, hTRPV6-Y467A (hTRPV6-Y467A; [5]): 92.4 ± 8.1%
- increased potency of 2-APB inhibition, hTRPV6-Y467A compared to hTRPV6 (hTRPV6-Y467A; ratio of IC50 values): 4.5 fold
- IC50 (wild-type hTRPV6): 274 ± 27 µM
- maximal inhibition of Ca2+ uptake, wild-type hTRPV6 (wild-type hTRPV6; [5]): 72.6 ± 2.7%
- IC50 (wild-type rTRPV6): 184 ± 8 µM
- maximal inhibition of Ca2+ uptake, wild-type rTRPV6 (wild-type rTRPV6; [6]): 93.6 ± 1.1%
- IC50 [1]: 156 ± 20 µM
- maximal inhibition of Ca2+ uptake, TRPV6* [1, 6]: 83.5 ± 2.9%
- IC50 (rTRPV6-Y466A): 3.62 ± 0.54 µM
- IC50 (rTRPV6-E402A): 7.5 ± 2.1 µM
- IC50 (rTRPV6-R469A): 23.4 ± 1.6 µM
- IC50 (rTRPV6-H425A): 165 ± 32 µM
- IC50 (rTRPV6-M602A): 98 ± 19 µM
Molecule: NCCOB(c1ccccc1)c1ccccc1 [2-APB, 2-aminoethoxydiphenyl borate]
- 2-APB modulation of TRPV4 (TRPV4): lack of measurable 2-APB modulation
- increase in 2-APB agonist potency, TRPV2 tyrosine-to-alanine mutant vs wild-type (rat TRPV2 (rTRPV2-Y514A)): 40 fold
- increase in 2-APB agonist potency, TRPV3 tyrosine-to-alanine mutant vs wild-type [2]: 20 fold
- increase in 2-APB agonist potency, TRPV1 tyrosine-to-alanine mutant vs wild-type (rat TRPV1 (rTRPV1-Y554A)): 3 fold
- 2-APB modulation of TRPV5 (TRPV5): lack of measurable 2-APB modulation

- stoichiometry N [3]: 4
Molecule: TRPV6* (rat TRPV6 residues 1-668 with I62Y, L92N and M96Q) (from UniProt Q9R186 1-668) (domain or fragment)

B1: human TRPV6 with a single tyrosine-to-alanine substitution (hTRPV6-Y467A) (natural protein)
chain: MGLSLPKEKGLILCLWSKFCRWFQRRESWAQSRDEQNLLQQKRIWESPLLLAAKDNDVQALNKLLKYEDCKVHQRGAMGETALHIAALYDNLEAAMVLMEAAPELVFEPMTSELYEGQTALHIAVVNQNMNLVRALLARRASVSARATGTAFRRSPCNLIYFGEHPLSFAACVNSEEIVRLLIEHGADIRAQDSLGNTVLHILILQPNKTFACQMYNLLLSYDRHGDHLQPLDLVPNHQGLTPFKLAGVEGNTVMFQHLMQKRKHTQWTYGPLTSTLYDLTEIDSSGDEQSLLELIITTKKREARQILDQTPVKELVSLKWKRYGRPYFCMLGAIYLLYIICFTMCCIYRPLKPRTNNRTSPRDNTLLQQKLLQEAYMTPKDDIRLVGELVTVIGAIIILLVEVPDIFRMGVTRFFGQTILGGPFHVLIITYAFMVLVTMVMRLISASGEVVPMSFALVLGWCNVMAFARGFQMLGPFTIMIQKMIFGDLMRFCWLMAVVILGFASAFYIIFQTEDPEELGHFYDYPMALFSTFELFLTIIDGPANYNVDLPFMYSITYAAFAIIATLLMLNLLIAMMGDTHWRVAHERDELWRAQIVATTVMLERKLPRCLWPRSGICGREYGLGDRWFLRVEDRQDLNRQRIQRYAQAFHTRGSEDLDKDSVEKLELGCPFSPHLSLPMPSVSRSTSRSSANWERLRQGTLRRDLRGIINRGLEDGESWEYQILVPRGSAAAWSHPQFEK
- stoichiometry N [4]: 4

Source: PMC6018633, “Structural bases of TRP channel TRPV6 allosteric modulation by 2-APB” (Nature Communications, 2018)
